# Read-outs that look alike come from different tables or passages of the source.
# How the values were obtained:
# [1] = DPPH radical scavenging assay
# Description: Briefly, the compounds were dissolved at a concentration of 1 mg/mL in absolute methanol, and a dilution was prepared. […] Then, 100 µL of the DPPH solution was added to 100 µL of the compounds’ solution to a final concentration of 0.03 mg/mL or 0.06 mg/mL, and the decolorization of the purple radical to the yellowish reduced form was followed by recording the absorbance at 517 nm. Ascorbic acid (Asc) and Trolox were used as positive controls. Both of them, Asc and Trolox, were purchased from Sigma-Aldrich. Determinations were recorded at eight different time intervals from 0 to 120 min on a BioTeck PowerWave XS spectrophotometer, and the data were collected using KCJunior version 1.41. software. All the measurements were carried out in triplicate. Results are expressed as the percentage of the radical scavenged, calculated using the following formula: % DPPH radical scavenging = [(Acontrol − Asample)/Acontrol] × 100, wherein Acontrol refers to the absorbance of the negative control and Asample refers to the absorbance of the tested compounds.
# HT-29 colon cancer cells = test: MTT cell viability assay, HT-29; format: cell-based; conditions: mean ± SD
# Description: (§1) The cell lines were purchased from the American Type Culture Collection (ATCC). The cancer cell lines DU-145, PC-3, T-47D, MDA-MB-231, H1299, and A549, and the non-tumorigenic cells (184B5 and BEAS-2B), were maintained in RPMI 1640 medium (Gibco, Alcobendas, Madrid, Spain) supplemented with 10% fetal bovine serum (FBS; Gibco) and 1% antibiotics (10.00 units/mL penicillin and 10.00 mg/mL streptomycin; Gibco). Colon cancer cells HT-29 and HCT-116 were cultured in McCoy’s 5A medium (Gibco) supplemented with 10% fetal bovine serum (FBS; Gibco) and 1% antibiotics (10.00 units/mL penicillin and 10.00 mg/mL streptomycin; Gibco). Cells were maintained in tissue culture flasks at 37 °C and 5% CO2. The culture medium was replaced every three days.
# (§2) The antiproliferative activity and selectivity in vitro of the Se-NSAID derivatives were determined by the (3-(4,5-dimethylthiazol-2-yl)-2,5-diphenyltetrazolium bromide) (MTT) assay. Compounds were dissolved in DMSO at a concentration of 0.01 M and serial dilutions were prepared. The Se-NSAID derivatives were tested at seven concentrations ranging between 1 and 100 µM in the colon (HT-29 and HCT-116), prostate (DU-145 and PC-3), breast (MDA-MB-231 and T-47D), and lung (H1299 and A549) cancer cell lines. The non-tumorigenic breast (184B5) and lung (BEAS-2B) cell lines were also tested to assess the selectivity of the compounds following the same procedure. A total of 1 × 10^4 cells were seeded per well in 96-well plates and incubated at 5% CO2 and 37 °C for 24 h. Then, cells were treated with either DMSO or increasing concentrations of the corresponding Se-NSAID derivatives for 48 h. A volume of 20 µL of MTT (5 mg/mL) was added to each well 2.5 h before the termination point. At the end of the experiment, the medium was removed, and the resultant formazan crystals formed by mitochondrial reduction of MTT were dissolved in 50 µL of DMSO. Absorbance was measured at 550 nm. IC50, GI50, TGI, and LC50 values were calculated using OriginPro version 8.5.1. software by nonlinear curve fitting. Selectivity indexes (SI) were calculated as the ratio of the IC50 values determined for the nonmalignant and the tumoral cells in the breast (IC50 (184B5)/IC50 (MDA-MB-231) and IC50 (184B5)/IC50 (T-47D)) and lung (IC50 (BEAS-2B)/IC50 (H1299) and IC50 (BEAS-2B)/IC50 (A549)) cell lines. Data were obtained from at least three independent experiments performed in triplicates.
# [2] = system: PC-3 prostate cancer cells; test: MTT cell viability assay, PC-3; format: cell-based; conditions: 48 h, mean ± SD
# Description: as §1, §2
# [3] = system: MDA-MB-231 breast cancer cells; test: MTT cell viability assay, MDA-MB-231; format: cell-based; conditions: mean ± SD
# Description: as §1, §2
# A549 lung cancer cells = test: MTT cell viability assay, A549; format: cell-based; conditions: Homo sapiens, A549, 48 h, mean ± SD
# Description: as §1, §2
# [4] = system: 184B5 non-tumorigenic breast (mammary gland) cells; test: MTT cell viability assay, 184B5; format: cell-based; conditions: mean ± SD; for IC50: nonmalignant breast cells
# Description: as §1, §2
# [5] = system: BEAS-2B non-tumorigenic lung (bronchial epithelium) cells; test: MTT cell viability assay, BEAS-2B; format: cell-based; conditions: 48 h, mean ± SD; for IC50: nonmalignant lung cells
# Description: as §1, §2
# [6] = system: panel of eight cancer cell lines; test: MTT cell viability assay, statements on the whole panel; format: cell-based; conditions: 48 h
# Description: as §1, §2
# HCT-116 cells = test: Annexin V & Dead Cell apoptosis assay; format: cell-based; conditions: HCT-116, 24 h
# Description: The capacity of the Se-NSAID derivatives to induce apoptosis was analyzed using both a Caspase 3/7 assay kit and Annexin V & Dead Cell assay kit (EMD Millipore, Darmstadt, Germany). HCT-116 cells were seeded in 6-well plates at a density of 5 × 10^5 cells per well. Cells were treated either with DMSO (control) or with different concentrations of compound 5 and incubated for 24 h. At the end of the treatment, cells were collected and treated with the respective dyes according to the manufacturer’s protocol. For the Caspase 3/7 assay, cells were stained with 5 µL of Muse™ Caspase 3/7 working solution and incubated at 37 °C for 30 min. After incubation, […] of Muse™ Caspase 7-AAD working solution was added and the samples were incubated for another 5 min in the dark at room temperature prior to analysis. For Annexin V assay, cells were stained with 100 µL pf Muse™ Annexin V & Dead Cell Reagent and incubated for 20 min at room temperature in the dark. Samples for both assays were analyzed on a Muse™ Cell Analyzer (Merck Millipore, Darmstadt, Germany) using Muse™ version 1.4. software.
# [7] = in vitro TGI concentration, 48 h, Table S1
# [8] = in vitro TGI concentration, Table S1
compound,measurement,setting,value
"CC(C)Cc1ccc(C(C)C(=O)[Se][Se]C(=O)C(C)c2ccc(CC(C)C)cc2)cc1 (stereo not drawn) [Compound 5, 2-(4-Isobutylphenyl)propanoic diselenoperoxyanhydride]",DPPH radical scavenging activity,"[1]; highest concentration tested (0.06 mg/mL), by the end of the experiment (120 min)",comparable to those of the positive controls
same,DPPH radical scavenging activity,[1]; lowest concentration tested (0.03 mg/mL),20%
same,IC50,"HT-29 colon cancer cells; Homo sapiens, HT-29, 48 h",8.5 ± 2.7 µM
same,GI50,"HT-29 colon cancer cells; Homo sapiens, HT-29, 48 h, Table S1",4.8 ± 1 µM
same,TGI HT-29,HT-29 colon cancer cells; [7],7.2 ± 1.8 µM
same,IC50,[2],7.4 ± 0.5 µM
same,GI50,[2]; Table S1,4.7 ± 0.2 µM
same,LD50 PC-3,[2]; Table S1,8.9 ± 1.9 µM
same,TGI PC-3,[2]; [8],6.1 ± 0.5 µM
same,IC50,"[3]; Homo sapiens, MDA-MB-231, 48 h",8.3 ± 2.5 µM
same,GI50,"[3]; Homo sapiens, MDA-MB-231, 48 h, Table S1",4.8 ± 1.1 µM
same,TGI MDA-MB-231,[3]; [7],7.9 ± 3.8 µM
same,IC50,A549 lung cancer cells,4.5 ± 0.6 µM
same,GI50,A549 lung cancer cells; Table S1,2.3 ± 0.2 µM
same,IC50,[4]; 48 h,18.2 ± 0.8 µM
same,GI50,"[4]; Homo sapiens, 184B5, 48 h, Table S1",6.6 ± 1.5 µM
same,IC50,"[4]; Homo sapiens, 184B5, 48 h",14 to 19 µM
same,TGI 184B5,[4]; [7],11.1 ± 1.4 µM
same,LD50 BEAS-2B,[5]; Table S1,14.8 ± 4.7 µM
same,IC50,[5],15.9 ± 2.4 µM
same,GI50,"[5]; Homo sapiens, BEAS-2B, Table S1",7.8 ± 2.3 µM
same,IC50,"[5]; Homo sapiens, BEAS-2B",14 to 19 µM
same,TGI BEAS-2B,[5]; [8],9.8 ± 1.6 µM
same,GI50,"[6]; eight cancer cell lines, read-out: GI50 across all the cancer cell lines tested",< 10 µM
same,IC50,"[6]; eight colon, prostate, breast and lung cancer cell lines, read-out: IC50 in all the cancer cell lines tested",< 10 µM
same,GI50,[6]; read-out: GI50 in at least six out of the eight cell lines,< 5 µM
same,Early Apop. cells,HCT-116 cells; 15 μM,~ 23%
same,Late Apop./Dead cells,HCT-116 cells; 15 μM,~ 13%
same,Live cells,HCT-116 cells; 15 μM,~ 63%
same,Dead cells,HCT-116 cells; 25 μM,~ 10%
same,Late Apop./Dead cells,HCT-116 cells; 25 μM,~ 20%
same,Live cells,HCT-116 cells; 25 μM,~ 60%
same,cells detected to be apoptotic,HCT-116 cells; 25 μM,more than 30%

# — publication PMC10525927, “First Generation of Antioxidant Precursors for Bioisosteric Se-NSAIDs: Design, Synthesis, and In Vitro and In Vivo Anticancer Evaluation” (Antioxidants, 2023)
